Reference: the Kinase Knowledgebase extract (Sharma et al. 2016)

These compounds were tested against MAPK14 (human) (UniProt Q16539) (assay: Assessment of MAPK14 Kinase Activity).
Sequence of MAPK14 (human) (Q16539 whole entry, looked up): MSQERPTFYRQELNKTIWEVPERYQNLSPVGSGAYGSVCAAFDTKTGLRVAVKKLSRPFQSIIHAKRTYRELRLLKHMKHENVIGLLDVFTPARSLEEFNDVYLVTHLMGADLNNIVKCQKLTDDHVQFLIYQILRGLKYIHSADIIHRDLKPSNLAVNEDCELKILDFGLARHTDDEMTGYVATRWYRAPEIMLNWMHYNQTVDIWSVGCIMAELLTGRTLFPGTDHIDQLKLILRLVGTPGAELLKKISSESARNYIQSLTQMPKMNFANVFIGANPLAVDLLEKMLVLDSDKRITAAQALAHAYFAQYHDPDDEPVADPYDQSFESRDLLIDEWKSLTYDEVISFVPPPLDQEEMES

| Structure (SMILES) | IC50 |
| --- | --- |
| Cc1cc(OCc2ccccc2CNC(=O)Nc2cc(C(C)(C)C)nn2-c2ccc(O)c(Cl)c2)c(Cl)c(=O)n1Cc1cccc(C(O)C(N)=O)c1 (stereo unspecified) | 8.9 nM |
| COc1ccccc1Cn1c(C)cc(OCc2ccccc2CNC(=O)Nc2cc(C(C)CSC)nn2-c2cccc(O)c2)c(Cl)c1=O (stereo unspecified) | 20.5 nM |
| Cc1cc(OCc2ccccc2CNC(=O)Nc2cc(C(C)(C)C)nn2-c2ccc(O)c(Cl)c2)c(Cl)c(=O)n1Cc1ccc(C(=O)CN)cc1 | 3.6 nM |
| Cc1cc(OCc2ccccc2CNC(=O)Nc2cc(C3CC3)nn2-c2ccccc2)c(Br)c(=O)n1Cc1ccccc1 | 176 nM |
| COC(=O)c1ccc(Cn2c(C)cc(OCc3ccccc3CNC(=O)Nc3cc(C(C)(C)C)nn3-c3ccc(C)cc3)c(Br)c2=O)cc1 | 16.9 nM |
| CCc1c(OCc2ccccc2CNC(=O)Nc2cc(C(C)(C)C)nn2-c2cccc(F)c2)ncn(Cc2ccccc2)c1=O | 11 nM |
| COC(=O)c1ccc(C)c(-n2c(SC)nc(OCc3ccc(F)cc3CNC(=O)Nc3cc(C(C)(C)C)nn3-c3ccc(C)cc3)cc2=O)c1 | 9.55 nM |

Compounds with a lower IC50, results first:

| IC50 | Structure (SMILES) |
| --- | --- |
| 2.5 nM | Cc1ccc(C(=O)N[C@H](C)C(N)=O)cc1-n1c(C)cc(OCc2ccccc2CNC(=O)Nc2cc(C(C)(C)C)nn2-c2ccc(O)c(Cl)c2)c(Cl)c1=O |
| 2.4 nM | Cc1cc(OCc2ccccc2CNC(=O)Nc2cc(C(C)(C)C)nn2-c2ccc(Cl)c(O)c2)c(Cl)c(=O)n1Cc1ccc(C(=O)CN)cc1 |
| 1.7 nM | Cc1ccc(C(=O)OCCO)cc1-n1c(C)cc(OCc2ccc(F)cc2CNC(=O)Nc2cc(C(C)(C)C)nn2-c2cccc(OCCO)c2)c(Cl)c1=O |
| 1.4 nM | Cc1ccc(C(=O)OCCN(C)C)cc1-n1c(C)cc(OCc2ccc(F)cc2CNC(=O)Nc2cc(C(C)(C)C)nn2-c2cccc(OCCO)c2)c(Cl)c1=O |
